From patent publication US8980614B2, “Staphylococcus haemolyticus prophage φSH2 endolysin is lytic for Staphylococcus aureus” (The United States of America, as represented by The …, priority 2012, dated 2015)

Tested on: MRSA strain NRS382
Assay: Control of systemic MRSA infection in a murine model
Assay type: in vivo, Balb/c mice
[1] = 0 hours, mice infected i.p. with MRSA NRS382, treated 30 min post infection (φSH2 200 μg/mouse i.p.; Vancomycin 375 μg/mouse s.c.; Oxacillin 1250 μg/mouse s.c.)
[2] = 4 hours, same infection and treatment
[3] = 8 hours, same infection and treatment
[4] = 12 hours, same infection and treatment
[5] = 16 hours, same infection and treatment
[6] = 20 hours, same infection and treatment
[7] = 24 hours, same infection and treatment
[8] = 28 hours, same infection and treatment
[9] = 32 hours, same infection and treatment
[10] = 36 hours, same infection and treatment
[11] = 40 hours, same infection and treatment
[12] = 44 hours, same infection and treatment

Cc1onc(-c2ccccc2)c1C(=O)N[C@@H]1C(=O)N2[C@@H]1SC(C)(C)[C@@H]2C(=O)O [Oxacillin]
30%: % Survival [8] | % Survival [9] | % Survival [10] | % Survival [11] | % Survival [12]
100%: % Survival [1] | % Survival [2] | % Survival [3] | % Survival [4] | % Survival [5]
40%: % Survival [6] | % Survival [7]
less than 40%: survival rate (after 16 to 20 hours, Oxacillin 1250 μg/mouse s.c. 30 min post infection)

CN[C@H](CC(C)C)C(=O)N[C@H]1C(=O)N[C@@H](CC(N)=O)C(=O)N[C@H]2C(=O)N[C@H]3C(=O)N[C@H](C(=O)N[C@H](C(=O)O)c4cc(O)cc(O)c4-c4cc3ccc4O)[C@H](O)c3ccc(c(Cl)c3)Oc3cc2cc(c3O[C@@H]2O[C@H](CO)[C@@H](O)[C@H](O)[C@H]2O[C@H]2C[C@](C)(N)[C@H](O)[C@H](C)O2)Oc2ccc(cc2Cl)[C@H]1O [Vancomycin]
100%: % Survival [1] | % Survival [2] | % Survival [3] | % Survival [4] | % Survival [5] | % Survival [6] | % Survival [7] | % Survival [8] | % Survival [9] | % Survival [10] | % Survival [11] | % Survival [12] | % Survival (48 hours (end of the experiment), same infection and treatment)
